How the values were obtained:
Type in all cases: in vivo
[1] = Anxiolytic activity by the Geller-Seifter test; settings: rats, i.p., p<0.05
Procedure: The anxiolytic activity of the compounds of the present invention was also assessed in rats with the Geller-Seifter test described by Geller, Kulac and Seifter in Psychopharmacologia, 1962, 3, p. 374-375.
An increase related exclusively to the levels of the punished responses determines the existence of an authentic anxiolytic effect.

[2] = Inhibition of isolation-induced aggression in mice; settings: Mus musculus, ip, read-out: Inhibitory ED50 (effective dose inhibiting 50% of the aggressive animals)
Source text: The compounds of general formula I inhibit the attacking behavior of mice rendered aggressive by isolation according to the method described by Yen, Stanger and Millman in Arch. Int. Pharmacodyn. 1959, 123, p. 179-185.

[3] = Inhibition of aggression in isolated and bulbectomized rats
Procedure: The inhibition of aggression was assessed according to the method described by Vergnes and Karli in C.R. Soc. Biol. 1963, 157, p. 1061. The effect on the aggression is assessed in terms of the percentage of animals which became non-killers after treatment.

[4] = Anxiolytic activity by MacMillan's conflict test; settings: rats, i.p., 2,5 mg.kg^-1, vs physiological saline
Source text: In these conditioning experiments which operate in the presence of a food reward, performed in rats according to the method described by MacMillan in Fed. Proceedings, 1975, 34, (9), p. 1870-1879, two parameters in the animal's behavioral responses are considered. The first parameter is the variation in the level of punished responses, in the presence of an electric shock, under the influence of the treatment in comparison with the level of punished responses under the influence of physiological saline. The second parameter is the variation in the level of unpunished responses, without an electric shock, under the influence of the same treatment, in comparison with the level of unpunished responses when physiological saline is administered. A specific anxiolytic effect is established when, after the administration of a substance, the level of only the punished responses is increased.

[5] = Anxiolytic activity by the four-plates test; settings: mice; for change in vivo at 5 mg/kg: 5 mg.kg^-1
Procedure: The anxiolytic activity of the compounds of the general formula I was investigated in mice according to the method of Aron Simon Larousse and Boissier described in Neuropharmacology (1971) 10 p. 459-469). After treatment of the animals by means of different doses of the compounds of the invention administered intraperitoneally or orally, the increase in the percentage of transitions during the exploration of the base of the test cage, in the presence of electric shocks, was assessed.

[6] = Anxiolytic activity by the "staircase" test; set-up: key to % variation in the steps climbed: NS: not significant; settings: rats
Source text: The anxiolytic activity of the compounds of the invention was investigated in rats according to the method described by Thiebot, Soubrie and Boissier in J. Pharmacol. 1976, 7, (1), p. 87-102. In this test, behavior involving rearing movements is associated with a state of distress of the animal. The number of steps climbed represents the normal exploratory behavior of the rat introduced into the enclosure. Normally, an efficacious anxiolytic compound should decrease, during the test which lasts 3 minutes, the number of rearing movements without modifying the number of steps climbed, or on the contrary should increase this latter parameter.

[7] = Inhibition of the active conditioned avoidance response in rats; settings: i.p.
Source text: The results obtained with the compounds of general formula I during the various experiments employing the method described by Courvoisier et al. in Arch. Int. Pharmacodyn., 1953, 92, p. 305-361 and by Janssen et al. in Arzneim, Forsch, 1965, 15, p.

[8] = Mus musculus, ip, i.p., read-out: % increase in the responses (transitions)

## O=C1CN(Cc2ccccc2F)CC(=O)N1CCCN1CCN(c2cccc(C(F)(F)F)c2)CC1 [Example 1, 4-(2-Fluorobenzyl)-1-{3-[1-(3-trifluoromethylphenyl)-4-piperazinyl]propyl}-2,6-piperazinedione dimandelate]
[1]; 2.5 mg.kg^-1
  increase in the punished responses: 39%
[2]
  ED50: 7.64 mg/kg
[3]; i.p., 25 mg.kg^-1
  % of non-killer animals: 45%
[4]; NS (not significant)
  % variation in the unpunished responses: +18%
[4]; S (significant)
  % variation in the punished responses: +49%
[5]; [8]
  change in vivo at 5 mg/kg: 65%
[5]; p.o., 50 mg.kg^-1
  % increase in the responses: 64%
[6]; i.p., 10 mg.kg^-1
  % variation in the rearing movements: -39%
  % variation in the steps climbed: NS
[6]; i.p., 20 mg.kg^-1
  % variation in the rearing movements: -64%
  % variation in the steps climbed: NS
[6]; i.p., 2,5 mg.kg^-1
  % variation in the rearing movements: -20%
  % variation in the steps climbed: NS

## O=C1CN(Cc2ccccc2F)CC(=O)N1CCCN1CCN(c2cccc(Cl)c2)CC1 [Example 2, 4-(2-Fluorobenzyl)-1-{3-8 1-(3-chlorophenyl)-4-piperazinyl]propyl}-2,6-piperazinedione dimandelate]
[1]; 5.0 mg.kg^-1
  increase in the punished responses: 65%

## COc1ccccc1CN1CC(=O)N(CCCCN2CCN(c3cccc(C(F)(F)F)c3)CC2)C(=O)C1.Cl.Cl [Example 6, 4-(2-Methoxybenzyl)-1-{4-[1-(3-trifluoromethylphenyl)-4-piperazinyl]butyl}-2,6-piperazinedione dihydrochloride]
[2]
  ED50: 4.74 mg/kg
[5]; Mus musculus, ip, i.p., 25 mg.kg^-1, read-out: % increase in the responses (transitions)
  change in vivo at 25 mg/kg: 37%

## O=C1CN(Cc2ccccc2)CC(=O)N1CCCN1CCN(c2ccc(F)cc2)CC1 [Example 9, 4-Benzyl-1-{3-[1-(4-fluorophenyl)-4-piperazinyl]propyl}-2,6-piperazinedioneoxalate]
[2]
  ED50: 8.6 mg/kg
[3]; i.p., 25 mg.kg^-1
  % of non-killer animals: 60%

## Cc1ccccc1N1CCN(CCCN2C(=O)CN(Cc3ccccn3)CC2=O)CC1.Cl.Cl.Cl [Example 19, 4-(2-Pyridylmethyl)-1-{3-[1-(2-methylphenyl)-4-piperazinyl]propyl}-2,6-piperazinedione trihydrochloride]
[2]
  ED50: 6.78 mg/kg
[7]; 20 mg.kg^-1
  % ICAR (percentage inhibition of the conditioned avoidance response): 26%
[7]; 40 mg.kg^-1
  % ICAR (percentage inhibition of the conditioned avoidance response): 73%

## O=C(O)C(=O)O.O=C(O)C(=O)O.O=C1CN(Cc2ccccn2)CC(=O)N1CCCN1CCN(c2cccc(C(F)(F)F)c2)CC1 [Example 21, 4-(2-Pyridylmethyl)-1-{3-[1-(3-trifluoromethylphenyl)-4-piperazinyl]propyl}-2,6-piperazinedione dioxalate]
[2]
  ED50: 11.1 mg/kg
[3]; i.p., 12,5 mg.kg^-1
  % of non-killer animals: 73%
[5]; [8]
  change in vivo at 5 mg/kg: 69%

Source: patent publication US4820707A, “2,6-piperazinedione compounds” (ADIR Et Cie, priority 1986, dated 1989)
